Measurements published in paper PMC11274654 (Biomedicines, 2024).
Like-named read-outs stand apart in the source and are kept apart here.

How the values were obtained:
[1] = tested on: mouse BMSCs (mBMSCs); assay: ALP activity in mouse bone marrow stromal cells; assay type: cell-based; conditions: 1 nM, seven days post-treatment
[2] = tested on: femur head strength of OVX rats; assay: OVX osteopenia model, femur head compression test; assay type: in vivo, SD rats; conditions: 235 mg/kg oral, 3 months
Experimental: The 10-month-old (265 ± 20 g) SD rats were ovariectomized (OVX) bilaterally and left for 3 months to develop osteopenia. Ovary-intact sham-operated animals were used as a control. A live animal micro-CT was performed to confirm osteopenia, followed by dividing the animals into 3 groups: Sham + vehicle (water, oral), OVX + vehicle (water, oral), and OVX + MTZ (235 mg/kg, oral). Each group had 9 rats, and treatment were administered for 3 months. Calcein (20 mg/kg, s.c.) was injected twice before sacrificing at 10-day intervals. The mechanical compression strength of the femur head was examined by a compression test with a bone strength tester, TK […] (Muromachi Kikai Co., Ltd., Tokyo, Japan), as described before.

[3] = Pharmacokinetic study, s.c., plasma LC-MS/MS; assay type: in vivo; conditions: rats, 40 mg/rat s.c.
Experimental: Mass spectrometric detections were carried out using an AB Sciex 4000 QTRAP LC-MS/MS, Redwood City, CA, USA) instrument fitted with an electrospray ionization source. Separation was conducted through X Bridge^TM Shield RP 18 (Waters, MA, USA) (5 µm, 4.6 × 50 mm) column. […] The ion spray voltage was set at 4500 V. […] The MS was operated in the ESI positive-ion mode, and the detection of the ions was performed in the multiple reaction monitoring (MRM) mode, monitoring the transition of m/z 172.06 precursor ion [M + H]+ to the m/z 128.08 product ion for IS and m/z 236.95 precursor ion [M + H]+ to the m/z 194.04 product ion for compound, respectively. After overnight fasting, the animals were divided into two groups (n = 4) based on the treatment: […] An MTZ suspension was prepared in water. Blood samples were collected at predetermined time points (0.25 to 48 h). […] To extract MTZ from plasma samples, the protein precipitation method was used. In this method, plasma samples (50 μL) were taken (50 ng/mL of carbamazepine (CBZ) as the internal standard) and vortexed at 2000 rpm for 10 min. Subsequently, the samples were centrifuged at 10,000 rpm for 10 min. The supernatant (100 µL) was taken for LC-MS/MS analysis. Data acquisition and quantitation were performed using analyst software. The PK parameters were determined using the Phoenix™ 6.3 WinNonlin (Pharsight Corporation, Mountain View, CA, USA) software as a noncompartmental model approach.

[4] = tested on: trabecular bone of OVX osteopenic rats; assay: OVX osteopenia model, micro-CT of trabecular bone; assay type: in vivo, SD rats; conditions: 235 mg/kg oral, 3 months
Experimental: The 10-month-old (265 ± 20 g) SD rats were ovariectomized (OVX) bilaterally and left for 3 months to develop osteopenia. Ovary-intact sham-operated animals were used as a control. A live animal micro-CT was performed to confirm osteopenia, followed by dividing the animals into 3 groups: Sham + vehicle (water, oral), OVX + vehicle (water, oral), and OVX + MTZ (235 mg/kg, oral). Each group had 9 rats, and treatment were administered for 3 months. Calcein (20 mg/kg, s.c.) was injected twice before sacrificing at 10-day intervals. A SkyScan 1076 μCT scanner (SkyScan, Ltd., Kartuizersweg, Kontich, Belgium) was used to perform a high-resolution μCT for the two-dimensional and three-dimensional assessment of excised bones. The rat bone scanning process used an isotropic voxel pixel size of 18 μm and an X-ray source of 70 kV and […]. Utilizing the SkyScan Nrecon software (Version: 1.7.0.4), cross-sectional reconstruction was performed. In order to examine the trabecular region of the femur and tibia, 100 slices were used to draw the region of interest (ROI), which was limited to the secondary spongiosa region 1.5 mm from the growth plate’s distal border. The primary spongiosa and cortical bone were not included in the ROI. A ROI was drawn on 70 slices of the mid-vertebral region for the L5 vertebral study. The Batman software (Version: 1.16.8.0+), with trabecular (3D) bone analysis programs was used for quantification.

[5] = tested on: mouse BMSCs (mBMSCs); assay: Nodule mineralization (Alizarin Red S) in mBMSCs; assay type: cell-based; conditions: 21 days post-treatment, differentiation medium
Experimental: (§1) Rat and mouse BMSCs were seeded at a density of 1 × 10^6 cells/well in a 6-well plate, vehicle or MTZ (1 nM) treatment was conducted, and the media were changed every alternate day for 21 days using a differentiation medium [10% FBS, β-glycerophosphate (10 mM), ascorbic acid (50 µg/mL), and dexamethasone (100 nM) in α-MEM].
(§2) Cells were fixed with 10% formalin for 15 min and stained with Alizarin Red for 1 h after 21 days of culture. Moreover, 10% cetylpyridinium chloride (Sigma #C0732) was used to quantify mineralized nodules at a 595 nm wavelength.

[6] = tested on: rat BMSCs (rBMSCs); assay: Nodule mineralization (Alizarin Red S) in rBMSCs; assay type: cell-based; conditions: 21 days post-treatment, differentiation medium
Experimental: as §1, §2

[7] = femur and tibia metaphyses, OVX rats
[8] = proximal femur and tibia metaphyses, OVX rats

MRT ([3]; plasma, sc): 7.63 ± 0.3 h
AUC ([3]; plasma, sc, read-out: Area under the curve (AUC)0–last): 206 ± 7.05 µg·h/mL
Cmax ([3]; plasma, sc, read-out: Maximum concentration (Cmax)): 23000 ± 870 ng/mL
Cl [3]: 13 ± 0.5 mL/min/kg
Vd [3]: 4.91 ± 0.15 L/kg
AUC(0-inf) ([3]; sc, plasma): 206 ± 7.05 µg·h/mL
Tmax ([3]; sc, plasma): 1.75 ± 0.25 h
half-life ([3]; sc, plasma): 4.39 ± 0.26 h
Cmax ([3]; sc, plasma, read-out: Cmax): 23000 ± 870 ng/mL
SMILES: Cc1ncc([N+](=O)[O-])n1CCO [Metronidazole]
ALP activity compared to the vehicle group [1]: increased
Energy (femur head compression) [2]: reversed both parameters to sham levels
Maximum power (femur head compression) [2]: reversed both parameters to sham levels
Stiffness (femur head compression) [2]: failed to increase it
Trabecular bone parameters at vertebra (L5) ([4]; L5, OVX rats): failed to restore
Trabecular number (Tb.N) [4, 7]: significant enhancement
Trabecular spacing (Tb.sp) [4, 7]: restored trabecular spacing (Tb.sp) to sham levels
Trabecular thickness (Tb.Th) [4, 7]: complete restoration
BMD [4, 8]: significantly increased
Bone volume (BV/TV) [4, 8]: significantly increased
Osteogenic differentiation and mineralized nodule formation [5]: stimulated
Osteogenic differentiation and mineralized nodule formation [6]: stimulated
